From the NIST ThermoML archive (doi:10.1021/je034278t)
± gives the expanded uncertainty stated by the source.

Conditions: Liquid

Compound: CC[S+]([O-])CC [diethyl sulfoxide]
- vapor or sublimation pressure (298.15 K): 0.0202 ± 0.0046 kPa
- vapor or sublimation pressure (303.15 K): 0.0339 ± 0.005 kPa
- vapor or sublimation pressure (308.15 K): 0.0438 ± 0.0054 kPa
- vapor or sublimation pressure (313.15 K): 0.0681 ± 0.0064 kPa
- vapor or sublimation pressure (318.15 K): 0.0924 ± 0.0075 kPa
